Laboratory results published in paper PMC5929447 (Oncotarget, 2018).

Assays:
H146 cell line = assay: CellTiter-Glo cell viability, H146; type: cell-based; settings: Homo sapiens, NCI-H146; 72 h of treatment
Description: (§1) Cells were seeded into 96-well plates and treated at 8 points with 1:2 serial dilution of compounds. Cell viability was assessed and assayed for viability using CellTiter-Glo reagent (Promega) following the manufacturer's instructions. Plates were read using Tecan luminescence plate reader. Results were normalized to the viability of cells without compounds (control wells). The IC50 values were calculated using nonlinear regression algorithms in XCell software.

RS4;11 cells = assay: Apoptosis hallmarks in RS4;11 cells (annexin V/PI flow cytometry, MSD cleaved caspase-3 and PARP); type: cell-based
Description: Cells were incubated with 200 μl of binding buffer containing AnnexinV-FITC (Invitrogen) and propidium iodide (PI, Sigma) during 15 min at 20° C in the dark. THP-1 cells were incubated with 200 μl of binding buffer containing AnnexinV-APC (BD Biosciences) and DAPI (Sigma). 400 μl of binding buffer was added and samples were kept at 4° C before cytometric analysis. […] Fluorescence was collected at 520 (FITC), 630 nm (PI), 660 nm (APC) and 470 (DAPI). Numbers of apoptotic cells (addition of primary apoptosis, secondary apoptosis and necrosis) was normalized to the total numbers of cells per tubes. page 6: Cleaved PARP and cleaved caspase-3 Cleared lysates (5 μg) were assayed for immunodetection immunodetection by MesoScale Discovery of cleaved PARP and cleaved caspase-3 with MSD (MSD) assay Apoptosis Panel Whole Cell Lysate kit (MSD […]) in 96-well plates according to manufacturer 's instructions, 24 h after seeding, cells were treated with the and analyzed on the Sector Image 2400. Control DMSO indicated compounds for 4 h and harvested in lysis buffer conditions were set to 100% and fold-activation calculated. […] Cleaved caspase-3 (C) and cleaved PARP (D) was measured using MesoScale Discovery Apoptosis panel. […]

Toledo cells = assay: CellTiter-Glo viability, Toledo; type: cell-based; settings: Homo sapiens, 72 h
Description: as §1

[1] = test system: isolated platelets from healthy volunteers; assay: Apoptosis (annexin V) in isolated platelets; type: cell-based; settings: Homo sapiens, Platelet; 4 healthy donors, 3 h; read-out: EC50 apoptosis (PS+) in isolated platelets
Description: Peripheral blood samples from CLL patients were obtained with informed patient consent and local ethical committee approval (UHL-09723). […] Interphase fluorescence in situ hybridization (FISH) was performed for detection of 17p13 deletion. Mantle cell lymphoma (MCL) primary cells were obtained after informed consent from MCL patients treated at the department of clinical hematology from the University Hospital of Nantes, France. Peripheral MCL cells from blood or pleural effusion, were purified after Ficoll-Hypaque separation with immuno-magnetic anti-CD19 beads (Miltenyi, Paris, France). Primary cells were cultured in RPMI-1640 supplemented with 10% FCS and 2 mM glutamine. Human platelets were isolated from citrate blood donated by healthy volunteers. Washed platelets were cultured in Hepes-buffered saline (HBS, 10 mM Hepes, 150 mM NaCl, 5 mM KCl, 1 mM MgSO4, pH 7.4).
EC50 values were calculated using GraphPadPrism (non-linear fit, sigmoidal dose response, variable slope). […] Cell death was assessed in the CD19+ primary MCL cells by annexinV-FITC staining combined with an analysis of altered cellular morphology (lower FCS). Fluorescence was analyzed on FACSCalibur.

BCL-XL = BCL-XL (Homo sapiens, UniProt Q07817); assay: Fluorescence polarization (FP) with Fluorescein-PUMA, BCL-XL; type: binding; settings: Fluorescein-PUMA as binder; read-out: FP_BCL-XL_KI
BCL-XL, sequence (Q07817 whole entry): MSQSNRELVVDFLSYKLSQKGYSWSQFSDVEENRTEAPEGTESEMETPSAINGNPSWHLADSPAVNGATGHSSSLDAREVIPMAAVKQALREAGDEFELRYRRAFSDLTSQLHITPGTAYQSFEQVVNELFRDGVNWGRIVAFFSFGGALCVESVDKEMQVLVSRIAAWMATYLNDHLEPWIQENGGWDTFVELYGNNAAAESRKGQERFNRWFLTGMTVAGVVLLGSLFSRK
Description: Final concentrations of MCL-1, BFL-1, BCL-2 and BCL-XL proteins were 10, 10, 10 and 20 nM respectively. The assay plates were incubated for 2 hours at room temperature and the FP was measured on a Synergy 2 reader (Ex. 528 nm, Em. 640 nm, Cut-off 510 nm). The binding of increasing doses of compound was expressed as a percentage reduction in mP compared to the window established between ‘DMSO only’ and ‘total inhibition’ control (30 μM PUMA). […] The KI was subsequently calculated as previously described [42].

[2] = test system: BCL-2-dependent FL5.12 cells; assay: Apoptosis (annexin V/PI) in FL5.12 cells expressing BCL-2 upon IL-3 withdrawal; type: cell-based, murine; settings: 24 h upon IL-3 withdrawal
RS4;11 xenograft = RS4;11 xenograft efficacy; type: in vivo, mice; settings: for Mean TV change: day 17, mean ± s.e.m.; for % T/C: day 17 post treatment start
Description: Experiments were performed in SCID/beige female mice from Charles River Laboratories, Massachusetts, USA. Animals, approximately 7-8 weeks of age at the start of the treatment were allowed to acclimate in animal facility with access to food and water ad libitum for 3 days prior to manipulation. Animals were handled in accordance with IACUC regulations and guidelines for experiments performed in the USA and with European and French regulation for the protection of vertebrate animals for experiments performed in France. Animal well-being and behavior, including grooming and ambulation were monitored at least once a day. General health of mice was monitored and mortality recorded daily. Any moribund animals were sacrificed. RS4;11 Acute Lymphoblastic Leukemia cell lines was obtained from ATCC. Toledo (Diffuse Large B-Cell Lymphoma) human cell lines were obtained internally through Bioresources and the Novartis-Cancer Cell Line Encyclopedia. Cells were free of Mycoplasma and murine viral contamination in the IMPACT VIII PCR assay panel ([…] laboratories INC, Westbrook, ME, USA). […] Cells were resuspended in a 1:1 mixture of cold DPBS (Dulbecco's Phosphate-Buffered Saline) and Matrigel^TM (Becton-Dickinson #354234) at a concentration of 3 × 10^7 cells/ml for Toledo cells, and of 1 × 10^7 cells/ml for RS4;11 cells. […] Body weights were recorded and tumors were measured with digital calipers twice to three times a week. Tumor volume was calculated using the formula: length × width^2/2. Percent changes in body weights was calculated as (BWcurrent - BWinitial)/(BWinitial) × 100. Data is presented as percent body weight change from the day of treatment initiation. When tumors reached approximately 200 mm^3 for efficacy studies or 300 mm^3 for pharmacodynamic studies, mice were randomized. […] Mice were treated via oral gavage at 10 ml/kg with the doses and schedules described in the figure. […] Regression = 100 × ΔT/Tinitial if ΔT < 0 where: T = mean tumor burden of the drug-treated group on the final day of the study; ΔT = mean tumor burden of the drug-treated group on the final day of the study - mean tumor burden of the drug-treated group on initial day of dosing; Tinitial = mean tumor burden of the drug-treated group on initial day of dosing; C = mean tumor burden of the control group on the final day of the study; and ΔC = mean tumor burden of the control group on the final day of the study - mean tumor burden of the control group on initial day of dosing. If the tumor volume was less than 14 mm^3 for more than 3 consecutive measurements, animals were considered in complete regression (CR).

BCL-2/BAX complex = BCL-2/BAX complex (Homo sapiens, UniProt P10415); assay: Co-immunoprecipitation in RS4;11 cells; type: cell-based; settings: 2 h, increasing concentrations
BCL-2/BAX complex, sequence (P10415 whole entry, one chain of several): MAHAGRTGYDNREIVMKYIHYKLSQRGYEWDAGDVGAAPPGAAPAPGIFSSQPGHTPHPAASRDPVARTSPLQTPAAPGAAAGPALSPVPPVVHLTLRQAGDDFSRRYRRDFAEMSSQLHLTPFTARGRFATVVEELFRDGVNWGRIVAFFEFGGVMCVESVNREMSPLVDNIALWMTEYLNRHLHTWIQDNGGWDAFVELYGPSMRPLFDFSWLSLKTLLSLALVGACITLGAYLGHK

[3] = 100 mg/kg oral daily for 7 days

## O=C(c1cc(-c2cc3c(cc2C(=O)N2Cc4ccccc4C[C@H]2CN2CCOCC2)OCO3)n2c1CCCC2)N(c1ccccc1)c1ccc(O)cc1 [S55746]
H146 cell line
  IC50: 1700 nM
RS4;11 cells; 2 h
  apoptosis induction, externalization of phosphatidylserine (PS+ cells): rapidly induced apoptosis in a concentration dependent-manner
RS4;11 cells; MSD assay
  cleavage of caspase-3 and PARP: observed upon treatment by S55746 in a concentration dependent manner
Toledo cells
  IC50: 401 nM
[1]
  EC50: > 3000 nM
BCL-XL
  Ki: 520 nM
[2]
  apoptosis induction (PS+ cells) in BCL-2-dependent FL5.12 cells: strongly induce apoptosis
RS4;11 xenograft; 25 mg/kg oral daily for 7 days
  Mean TV change: 782.38 ± 107.32 mm3
  % T/C: 67.1 % T/C
RS4;11 xenograft; 50 mg/kg oral daily for 7 days
  Mean TV change: 190.50 ± 76.72 mm3
  % T/C: 16.3 % T/C
RS4;11 xenograft; [3]
  complete regression: complete regression observed in all animals
  Mean TV change: –98.13 ± 11.62 mm3
BCL-2/BAX complex
  disruption of the BCL-2/BAX complex in RS4;11 cells: concentration-dependent disruption of the BCL-2/BAX complex
